PubChem BioAssay AID258 (DTP/NCI, 2004)
“And” between values parts separate entries of the source, which are not always exact repeats. Equal values may be shown once. Toxic doses and inconclusive results are not listed.

Tested on: CD2F1 mice, L1210 leukemia sc, survival T/C
Test: NCI In Vivo Anticancer Drug Screen. Data for tumor model L1210 Leukemia (subcutaneous) in CD2F1 (CDF1) mice
Conditions: endpoint: median survival time, higher = longer survival
In short: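 Mice with transplanted tumor dosed; survival/tumor size read; T/C vs vehicle controls.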

[1] = dose: 16.0 mg/kg/injection, schedule: Q01DX009 (sc), vehicle: saline

For O=c1[nH]cc(F)c(=O)[nH]1, the T/C (dose: 2.5 mg/kg/injection, schedule: Q01DX009 (ip), vehicle: saline) was 109 % of control and 94 % of control, the T/C (dose: 5.0 mg/kg/injection, schedule: Q01DX009 (ip), vehicle: saline) was 101 % of control and 106 % of control and the T/C (dose: 6.0 mg/kg/injection, schedule: Q01DX009 (ip), vehicle: saline) was 111 % of control. For the same compound, the T/C (dose: 6.0 mg/kg/injection, schedule: Q01DX009 (sc), vehicle: saline) was 110 % of control, the T/C (dose: 6.25 mg/kg/injection, schedule: Q01DX009 (ip), vehicle: saline) was 93 % of control and the T/C (dose: 10.0 mg/kg/injection, schedule: Q01DX009 (ip), vehicle: saline) was 108 % of control and 114 % of control and 117 % of control. For the same compound, the T/C (dose: 10.0 mg/kg/injection, schedule: Q01DX009 (sc), vehicle: saline) was 102 % of control, the T/C (dose: 12.5 mg/kg/injection, schedule: Q01DX006 (ip), vehicle: saline) was 105 % of control and the T/C (dose: 12.5 mg/kg/injection, schedule: Q01DX009 (ip), vehicle: saline) was 112 % of control. For the same compound, the T/C (dose: 12.5 mg/kg/injection, schedule: Q02DX005 (ip), vehicle: saline) was 111 % of control, the T/C [1] was 150 % of control and the T/C (dose: 20.0 mg/kg/injection, schedule: Q01DX009 (sc), vehicle: saline) was 118 % of control. For the same compound, the T/C (dose: 24.0 mg/kg/injection, schedule: Q01DX009 (ip), vehicle: saline) was 155 % of control, the T/C (dose: 24.0 mg/kg/injection, schedule: Q01DX009 (sc), vehicle: saline) was 152 % of control and 168 % of control and the T/C (dose: 25.0 mg/kg/injection, schedule: Q02DX005 (ip), vehicle: saline) was 112 % of control. The T/C (dose: 25.0 mg/kg/injection, schedule: Q04DX003 (ip), vehicle: saline) was 100 % of control, the T/C (dose: 26.7 mg/kg/injection, schedule: Q01DX009 (sc), vehicle: saline) was 152 % of control and the T/C (dose: 40.0 mg/kg/injection, schedule: Q01DX009 (ip), vehicle: saline) was 104 % of control and 114 % of control and 94 % of control. The T/C (dose: 40.0 mg/kg/injection, schedule: Q01DX009 (sc), vehicle: saline) was 151 % of control and 160 % of control, the T/C (dose: 48.0 mg/kg/injection, schedule: Q01DX009 (ip), vehicle: saline) was 102 % of control and the T/C (dose: 48.0 mg/kg/injection, schedule: Q01DX009 (sc), vehicle: saline) was 117 % of control. For the same compound, the T/C (dose: 50.0 mg/kg/injection, schedule: Q01DX001 (ip), vehicle: saline) was 111 % of control, the T/C (dose: 50.0 mg/kg/injection, schedule: Q01DX009 (ip), vehicle: saline) was 150 % of control and the T/C (dose: 50.0 mg/kg/injection, schedule: Q04DX003 (ip), vehicle: saline) was 100 % of control. For the same compound, the T/C (dose: 60.0 mg/kg/injection, schedule: Q01DX009 (sc), vehicle: saline) was 161 % of control, the T/C (dose: 65.0 mg/kg/injection, schedule: Q01DX Z (sc), vehicle: saline) was 112 % of control and the T/C (dose: 80.0 mg/kg/injection, schedule: Q01DX009 (ip), vehicle: saline) was 103 % of control. For the same compound, the T/C (dose: 96.0 mg/kg/injection, schedule: Q01DX009 (ip), vehicle: saline) was 91 % of control, the T/C (dose: 96.0 mg/kg/injection, schedule: Q01DX009 (sc), vehicle: saline) was 88 % of control and the T/C (dose: 100.0 mg/kg/injection, schedule: Q01DX001 (ip), vehicle: saline) was 122 % of control. The T/C (dose: 100.0 mg/kg/injection, schedule: Q02DX005 (ip), vehicle: saline) was 175 % of control, the T/C (dose: 100.0 mg/kg/injection, schedule: Q04DX003 (ip), vehicle: saline) was 155 % of control and the T/C (dose: 108.0 mg/kg/injection, schedule: Q01DX Z (sc), vehicle: saline) was 112 % of control. The T/C (dose: 180.0 mg/kg/injection, schedule: Q01DX Z (sc), vehicle: saline) was 108 % of control and the T/C (dose: 400.0 mg/kg/injection, schedule: Q01DX001 (ip), vehicle: saline) was 122 % of control.

In the case of O=C(Nc1ccccc1)c1c(O)[nH]c(=S)[nH]c1=O, the T/C (dose: 5.6 mg/kg/injection, schedule: Q03HX008 (ip), vehicle: other) is reported as 107 % of control and 96 % of control, the T/C (dose: 5.9 mg/kg/injection, schedule: Q04HX006 (iv), vehicle: other) is reported as 110 % of control and the T/C (dose: 8.4 mg/kg/injection, schedule: Q03HX008 (ip), vehicle: other) is reported as 107 % of control. The T/C (dose: 8.9 mg/kg/injection, schedule: Q01DX003 (iv), vehicle: other) was 105 % of control, the T/C (dose: 8.9 mg/kg/injection, schedule: Q04HX006 (iv), vehicle: other) was 109 % of control and the T/C (dose: 12.6 mg/kg/injection, schedule: Q03HX008 (ip), vehicle: other) was 104 % of control and 111 % of control. The T/C (dose: 13.4 mg/kg/injection, schedule: Q01DX003 (iv), vehicle: other) was 101 % of control, the T/C (dose: 13.4 mg/kg/injection, schedule: Q01DX005 (ip), vehicle: other) was 100 % of control and 103 % of control and the T/C (dose: 13.4 mg/kg/injection, schedule: Q04HX006 (iv), vehicle: other) was 113 % of control. For the same compound, the T/C (dose: 18.8 mg/kg/injection, schedule: Q03HX008 (ip), vehicle: other) was 122 % of control, the T/C (dose: 20.0 mg/kg/injection, schedule: Q01DX003 (iv), vehicle: other) was 107 % of control and the T/C (dose: 20.0 mg/kg/injection, schedule: Q01DX005 (ip), vehicle: other) was 106 % of control and 115 % of control. The T/C (dose: 20.0 mg/kg/injection, schedule: Q04HX006 (iv), vehicle: other) was 119 % of control, the T/C (dose: 28.2 mg/kg/injection, schedule: Q03HX008 (ip), vehicle: other) was 157 % of control and 163 % of control and the T/C (dose: 29.8 mg/kg/injection, schedule: Q01DX001 (ip), vehicle: other) was 105 % of control and 107 % of control. The T/C (dose: 30.0 mg/kg/injection, schedule: Q01DX003 (iv), vehicle: other) was 124 % of control, the T/C (dose: 30.0 mg/kg/injection, schedule: Q04HX006 (iv), vehicle: other) was 168 % of control and the T/C (dose: 44.7 mg/kg/injection, schedule: Q01DX001 (ip), vehicle: other) was 117 % of control and 119 % of control. For the same compound, the T/C (dose: 45.0 mg/kg/injection, schedule: Q01DX003 (iv), vehicle: other) was 161 % of control and the T/C (dose: 45.0 mg/kg/injection, schedule: Q01DX005 (ip), vehicle: other) was 173 % of control and 184 % of control.

In the case of COc1cccc2c1C(=O)c1c(O)c3c(c(O)c1C2=O)CC(O)(C(C)=O)CC3OC1CC(N)C(O)C(C)O1 (stereo unspecified), the T/C (dose: 2.9 mg/kg/injection, schedule: Q01DX009 (ip), vehicle: saline) is reported as 96 % of control, the T/C (dose: 5.8 mg/kg/injection, schedule: Q01DX009 (ip), vehicle: saline) is reported as 96 % of control and the T/C (dose: 11.7 mg/kg/injection, schedule: Q01DX009 (ip), vehicle: saline) is reported as 98 % of control. For the same compound, the T/C (dose: 23.4 mg/kg/injection, schedule: Q01DX009 (ip), vehicle: saline) was 103 % of control and the T/C (dose: 46.8 mg/kg/injection, schedule: Q01DX009 (ip), vehicle: saline) was 108 % of control.

With CCOC1=C(N2CC2)C(=O)C(OCC)=C(N2CC2)C1=O the T/C (dose: 3.0 mg/kg/injection, schedule: Q01DX Z (sc), vehicle: carboxymethylcellulose (CMC)) was 113 % of control, the T/C (dose: 5.0 mg/kg/injection, schedule: Q01DX Z (sc), vehicle: carboxymethylcellulose (CMC)) was 118 % of control and the T/C (dose: 8.4 mg/kg/injection, schedule: Q01DX Z (sc), vehicle: carboxymethylcellulose (CMC)) was 113 % of control. The T/C (dose: 14.0 mg/kg/injection, schedule: Q01DX Z (sc), vehicle: carboxymethylcellulose (CMC)) was 109 % of control and the T/C (dose: 23.0 mg/kg/injection, schedule: Q01DX Z (sc), vehicle: carboxymethylcellulose (CMC)) was 100 % of control.

C[C@]12C=CC(=O)C=C1CC[C@@H]1[C@@H]2C(=O)C[C@@]2(C)[C@H]1CC[C@]2(O)C(=O)CO was tested, and the T/C (dose: 180.0 mg/kg/injection, schedule: Q01DX Z (sc), vehicle: water) was 122 % of control, the T/C (dose: 180.0 mg/kg/injection, schedule: Q02DX Z (sc), vehicle: water) was 154 % of control and the T/C (dose: 500.0 mg/kg/injection, schedule: Q#A X Z (sc), vehicle: water) was 122 % of control.

With N[C@H](C(=O)O)[C@H]1ON=C(Cl)[C@@H]1O the T/C [1] was 114 % of control, the T/C (dose: 64.0 mg/kg/injection, schedule: Q01DX009 (sc), vehicle: saline) was 152 % of control and the T/C (dose: 1024.0 mg/kg/injection, schedule: Q01DX009 (sc), vehicle: saline) was 120 % of control.

With Clc1ccc(CNc2ncnc3[nH]ncc23)cc1Cl the T/C (dose: 8.4 mg/kg/injection, schedule: Q01DX Z (sc), vehicle: methylcellulose (MC)) was 95 % of control, the T/C (dose: 14.0 mg/kg/injection, schedule: Q01DX Z (sc), vehicle: methylcellulose (MC)) was 95 % of control and the T/C (dose: 23.0 mg/kg/injection, schedule: Q01DX Z (sc), vehicle: methylcellulose (MC)) was 95 % of control. The T/C (dose: 39.0 mg/kg/injection, schedule: Q01DX Z (sc), vehicle: methylcellulose (MC)) was 100 % of control, the T/C (dose: 65.0 mg/kg/injection, schedule: Q01DX Z (sc), vehicle: methylcellulose (MC)) was 104 % of control and the T/C (dose: 108.0 mg/kg/injection, schedule: Q01DX Z (sc), vehicle: methylcellulose (MC)) was 114 % of control. For the same compound, the T/C (dose: 180.0 mg/kg/injection, schedule: Q01DX Z (sc), vehicle: methylcellulose (MC)) was 104 % of control.

For FC(F)(F)c1nc2nc(Cl)c(Cl)nc2[nH]1, the T/C (dose: 30.0 mg/kg/injection, schedule: Q04DX003 (ip), vehicle: saline with Tween-80) was 104 % of control, the T/C (dose: 44.0 mg/kg/injection, schedule: Q04DX003 (ip), vehicle: saline with Tween-80) was 106 % of control and the T/C (dose: 66.0 mg/kg/injection, schedule: Q04DX003 (ip), vehicle: saline with Tween-80) was 106 % of control.
